Experimental data from PubChem BioAssay (NCI).
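Results reflect a 48-hour exposure of cells in 96-well plates to compound at five concentrations. Definition used: TGI = concentration required for complete inhibition of growth.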

Experiments:
Experiment in all cases: DTP human tumour cell line panel, 48 h
OVCAR-8 ovarian = tested on: OVCAR-8 ovarian
NCI/ADR-RES ovarian = tested on: NCI/ADR-RES ovarian
MOLT-4 leukemia = tested on: MOLT-4 leukemia
MCF7 breast = tested on: MCF7 breast
SK-MEL-5 melanoma = tested on: SK-MEL-5 melanoma
A549 NSCLC = tested on: A549 NSCLC
COLO 205 colon = tested on: COLO 205 colon
CAKI-1 renal = tested on: CAKI-1 renal
HCT-116 colon = tested on: HCT-116 colon
OVCAR-5 ovarian = tested on: OVCAR-5 ovarian
MDA-N = tested on: MDA-N
RPMI-8226 leukemia = tested on: RPMI-8226 leukemia
RXF 393 renal = tested on: RXF 393 renal
SF-268 CNS = tested on: SF-268 CNS
HOP-92 NSCLC = tested on: HOP-92 NSCLC
SF-539 CNS = tested on: SF-539 CNS
A498 renal = tested on: A498 renal

Compound | TGI (OVCAR-8 ovarian) | TGI (NCI/ADR-RES ovarian) | TGI (MOLT-4 leukemia) | TGI (MCF7 breast) | TGI (SK-MEL-5 melanoma) | TGI (A549 NSCLC) | TGI (COLO 205 colon) | TGI (CAKI-1 renal) | TGI (HCT-116 colon) | TGI (OVCAR-5 ovarian) | TGI (MDA-N) | TGI (RPMI-8226 leukemia) | TGI (RXF 393 renal) | TGI (SF-268 CNS) | TGI (HOP-92 NSCLC) | TGI (SF-539 CNS) | TGI (A498 renal)
O=C(c1ccc2ccccc2c1)C1(I)S(=O)(=O)OCCOS1(=O)=O | > 100 µM | > 100 µM | > 100 µM | > 100 µM | > 100 µM | > 100 µM | > 100 µM | > 100 µM | > 100 µM | > 100 µM | > 100 µM | > 100 µM |  |  |  |  | 
COc1cc([C@@H]2c3cc4c(cc3[C@H](OC3OC5COC(c6ccco6)OC5C(O)C3O)C3COC(=O)[C@@H]32)OCO4)cc(OC)c1OC (some centres undefined) | > 100 µM | > 80.1 µM |  | > 53.6 µM | > 72.4 µM | > 100 µM | > 31.3 µM | > 69.9 µM | > 100 µM | > 100 µM |  | > 100 µM | > 100 µM | > 100 µM | > 100 µM | > 100 µM | 
Cc1ccc(S(=O)(=O)n2cc(/C=C/C#N)c(-c3cn(S(=O)(=O)c4ccc(C)cc4)cc3-c3cn(S(=O)(=O)c4ccc(C)cc4)cc3/C=C/C#N)c2)cc1 | > 100 µM | > 100 µM |  |  | > 100 µM |  | > 100 µM | > 100 µM | > 100 µM | > 100 µM | > 100 µM | > 100 µM |  | > 100 µM | > 100 µM |  | > 100 µM
C=C1CC[C@](C)(O)[C@@]2(C)CC[C@H]3C(=C(C)C)C(=O)C[C@]3(C)C[C@H]12 | > 50 µM | > 50 µM | 31.6 µM | > 50 µM | > 50 µM | > 50 µM | > 50 µM | > 50 µM | > 50 µM | > 50 µM |  | > 50 µM | > 50 µM | > 50 µM | > 50 µM | > 50 µM | > 50 µM
CC(C)[Si](OC12CCC(CC1O)CC2CO)(C(C)C)C(C)C (centres undefined) | 29.7 µM | 28.3 µM | 44.6 µM | 24.4 µM | 47.6 µM | 22.1 µM | 42.2 µM | 39.3 µM | 20.7 µM | 31.2 µM |  | 38.1 µM |  | 27.9 µM | 29 µM | 38 µM | 32 µM
CC1(C)CNC(=O)C2(CCCO2)CNC(C)(C)CNC(=O)C2(CCCO2)CN1 (centres undefined) | > 10 µM | > 10 µM | > 10 µM | > 10 µM | > 10 µM | > 10 µM | > 10 µM | > 10 µM | > 10 µM | > 10 µM |  | > 10 µM |  | > 10 µM | > 10 µM | > 10 µM | 
COc1ccc2c(O)c(Oc3ccc(Cl)cc3)c(=O)oc2c1 | > 100 µM |  | > 100 µM | > 100 µM | > 100 µM | > 100 µM |  | > 100 µM | > 100 µM | > 100 µM | > 100 µM | > 100 µM | > 100 µM | > 100 µM | > 100 µM | > 100 µM | > 100 µM
CCC(C)N1CN(c2ccccc2)C2(CCN(CC3COc4ccccc4O3)CC2)C1=O (centres undefined) | 67.9 µM | 44.1 µM | 66.4 µM | 49.6 µM | 28.9 µM | > 100 µM | 47.7 µM | 38.4 µM | 32 µM |  | 64.1 µM | 47.2 µM | 38.1 µM | > 100 µM |  | 33.3 µM | 
O=C1c2ccccc2C(=O)N1/N=C1/SC(=Nc2ccccc2)C(=Nc2ccccc2)N1c1ccccc1 | > 75.9 µM | > 100 µM | > 100 µM | > 100 µM | > 90.3 µM | > 100 µM | > 100 µM | > 100 µM | > 100 µM | > 100 µM |  | > 79.1 µM | 14.3 µM | > 100 µM | > 100 µM | > 100 µM | > 63.1 µM
O=C1CSCC(=O)Nc2ccccc2N1 | > 100 µM | > 100 µM | > 100 µM |  | > 100 µM | > 100 µM | > 100 µM | > 100 µM | > 100 µM | > 100 µM | > 100 µM | > 100 µM | > 100 µM | > 100 µM | > 100 µM | > 100 µM | > 100 µM
N/N=c1/nc2n(c3ncccc13)C=CNN2 | > 100 µM |  | > 100 µM |  | > 100 µM | > 100 µM | > 100 µM | > 100 µM | > 100 µM | > 100 µM |  | > 100 µM | > 100 µM | > 100 µM | > 100 µM | > 100 µM | 
O=C(O)CN1CCSc2ccccc2CN(CC(=O)O)CCSc2ccccc2C1 | > 100 µM |  |  |  | > 100 µM | > 100 µM | > 100 µM | > 100 µM | > 100 µM | > 100 µM |  | > 100 µM |  | > 100 µM | > 100 µM | > 100 µM | > 100 µM
CCNC1=C(NC(=O)c2ccc(F)cc2)C(=O)c2ccccc2C1=O | > 100 µM | > 100 µM | > 100 µM | > 100 µM | > 100 µM | > 100 µM | > 100 µM |  | > 100 µM | > 100 µM | > 100 µM | > 100 µM | 84.4 µM | > 100 µM | > 100 µM | > 100 µM | 
NC(N)=N/N=C/c1c(-c2ccccc2[N+](=O)[O-])nc2sccn12 | > 100 µM | > 100 µM | 46 µM | 38.1 µM | 30.8 µM | > 100 µM | 29.4 µM | > 100 µM | 34.4 µM | > 100 µM |  | 42.8 µM | 32.4 µM | > 100 µM | > 100 µM | 37.6 µM | 37.7 µM
O=C(CNc1ccccc1[N+](=O)[O-])Nn1cnc2ccc(S(=O)(=O)Nc3ccccc3[N+](=O)[O-])cc2c1=O | > 100 µM | > 100 µM | > 100 µM | > 100 µM |  | > 100 µM | > 100 µM | > 100 µM | > 100 µM | > 100 µM | > 100 µM | > 100 µM |  | > 100 µM | > 100 µM | > 100 µM | 
